Tests used:
[1] = system: HCT116 MTAP-deleted cell lines; experiment: Cell viability assay (CellTiter-Glo, 7 days), HCT116 MTAP-deleted; type: cell-based; conditions: Homo sapiens, HCT-116; cell viability, HCT116 MTAP-deleted; class symbols; read-out: CC50
Outline: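 CC50 values come from 7-day CellTiter-Glo viability measurements on cells exposed to a dose range of PRMT5 inhibitors dispensed from DMSO stocks.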

[2] = system: Symmetric Di-methyl Arginine (SDMA) signal (PRMT5 inhibition) in HCT116 MTAP-deleted cells; experiment: Symmetric di-methyl arginine image-based high content screen assay (SDMA assay), HCT116 MTAP-deleted; type: cell-based; conditions: for EC50 selectivity: HCT116 WT versus HCT116 MTAP-deleted; for EC50: Homo sapiens, HCT-116, HCT116 MTAP-deleted, class symbols
Protocol: Symmetric di-methyl arginine image-based high content screen assay (SDMA assay) was performed in HCT116 WT and HCT116 MTAP-deleted cell lines to measure Symmetric Di-methyl Arginine (SDMA) signal reduction after selective PRMT5 inhibition in the MTAP-deleted cells. Control compounds were analyzed in parallel each time for quality control.
Briefly, the same compound plates were generated as mentioned in the previous section of Cell viability assay on Day −1. On Day 0, 800 HCT WT or HCT116 MTAP-deleted cell were seeded in compound-containing 384 well plates (50 μl per well) in RPMI 1640 media supplemented with 10% heat inactivated fetal bovine serum, Glutamax and penicillin streptomycin using EL460 liquid dispenser 5 μl cassette (BioTek, part no. 7170011). After equilibrating the plate at room temperature, the cells were incubated for 3 days inside the sealed incubator set at 37° C. with 90% humidity and 5% C02.
On Day 3, the cells were fixed by adding 45 μl of 8% neutralized formalin solution to each well using EL460 liquid dispenser 5 μl cassette and the cells were incubated for 30 minutes at room temperature. The formalin solution was washed off with […] phosphate buffered saline (dPBS), the 0.1% Triton X-100 solution in dPBS was used to permeabilize the cells for 15 minutes at room temperature. The triton solution was aspirated, 50 μl of Odyssey Blocking buffer +0.05% Tween20 was added and the plate was incubated at room temperature for 30 minutes.
The blocking solution was removed, a 20 μl of SDMA antibody (Cell Signaling Technology, Cat no. 13222) diluted 1:500 in Odyssey Blocking buffer +0.05% Tween20 was added and the plate was incubated at 4° C. overnight. Next day, the primary SDME antibody solution was washed from each well three times with 0.05% Tween20 in dPBS (PBST).
A 30 μl of the secondary antibody, a Goat anti-Rabbit Alexa Fluor Plus 488 (Invitrogen, Cat no. PIA32731) was diluted 1:500 in Odyssey Blocking buffer +0.05% Tween20 and the plate was incubated for 1.5 hours in dark at room temperature. The secondary antibody solution was removed, 30 μl of 5 mg/ml DAPI solution diluted 1:2000 in dPBS was added and the plate was incubated for 30 minutes in dark at room temperature. The DAPI solution was aspirated and the wells were washed six times with dPBS.
The SDMA signal and DAPI signal per cell were counted using a Cellomics CX7 LZR instrument reading under 488 and 405 nm laser, respectively. The SDMA signal was quantified by mean average intensity per cell from Alexa Fluor Plus 488 after the cell was defined with DAPI. The EC50 values for each compound after 3 days of treatment were calculated using 4 parameter non-linear logistical curve fit.
For the SDMA assay i.e. EC50 shown in Table 3A: A: EC50≤1 nM, B: 1 nM<EC50≤5 nM, C: EC50>5 nM.

Structure (SMILES)	EC50 selectivity [2]	EC50 [2]	CC50 [1]
CC(=O)N(C)N(Cc1ccc(Cl)cc1C#N)C(=O)c1ccc2nc(N)c3c(C)ncn3c2c1 [Fa-6, N′-acetyl-4-amino-N-(4-chloro-2-cyanobenzyl)-N′,3-dimethylimidazo[1,5-a]quinoxaline-8-carbohydrazide]	129	1 to 5 nM	< 100 nM
CC(=O)N(C)N(Cc1ccc(C(F)(F)F)cc1F)C(=O)c1ccc2nc(N)c3c(C)nc(C)n3c2c1 [Fa-7, N′-acetyl-4-amino-N-(2-fluoro-4-(trifluoromethyl)benzyl)-N′,1,3-trimethylimidazo[1,5-a]quinoxaline-8-carbohydrazide]	159	> 5 nM	100 to 1000 nM
Cc1ncc2c(N)nc3ccc(C(=O)N(Cc4ccc(C(F)(F)F)cc4F)N(C)C(=O)C4CC4)cc3n12 [Fb-4, 4-amino-N′-(cyclopropanecarbonyl)-N-(2-fluoro-4-(trifluoromethyl)benzyl)-N′,1-dimethylimidazo[1,5-a]quinoxaline-8-carbohydrazide]	249	1 to 5 nM	100 to 1000 nM
CC(=O)N(C)N(Cc1nc2cc(Cl)ccc2s1)C(=O)c1ccc2nc(N)c3cncn3c2c1 [Fb-5, N′-acetyl-4-amino-N-((5-chlorobenzo[d]thiazol-2-yl)methyl)-N′-methylimidazo[1,5-a]quinoxaline-8-carbohydrazide]	320	> 5 nM	100 to 1000 nM
Cc1ncc2c(N)nc3ccc(C(=O)N(Cc4ccc(C(F)(F)F)cn4)N4CCCC4=O)cc3n12 [Fc-1, 4-amino-1-methyl-N-(2-oxopyrrolidin-1-yl)-N-[[5-(trifluoromethyl)-2-pyridyl]methyl]imid-azo[1,5-a]quinoxaline-8-carboxamide]	171	1 to 5 nM	100 to 1000 nM

The next lines start with results.

EC50 selectivity [2]	EC50 [2]	Structure (SMILES)	CC50 [1]
48	1 to 5 nM	Nc1nc2ccc(C(=O)N(Cc3ccc(C(F)(F)F)cn3)N3CCOCC3)cc2n2cncc12 [Fb-2, 4-amino-N-morpholino-N-((5-(trifluoromethyl)pyridin-2-yl)methyl)imidazo[1,5-a]quinoxaline-8-carboxamide]	< 100 nM
32	≤ 1 nM	CN(C(=O)C1CC1)N(Cc1ccc(C(F)(F)F)cc1F)C(=O)c1cc2c(cc1F)nc(N)c1cncn12 [Fb-3, 4-amino-N′-(cyclopropanecarbonyl)-7-fluoro-N-(2-fluoro-4-(trifluoromethyl)benzyl)-N′-methylimidazo[1,5-a]quinoxaline-8-carbohydrazide]	< 100 nM
390	> 5 nM	CC(=O)N(C)N(Cc1nc2cc(Cl)ccc2s1)C(=O)c1ccc2nc(N)c3cnc(C)n3c2c1 [Fb-6, N′-acetyl-4-amino-N-((5-chlorobenzo[d]thiazol-2-yl)methyl)-N′,1-dimethylimidazo[1,5-a]quinoxaline-8-carbohydrazide]	100 to 1000 nM
224	≤ 1 nM	CN(C(=O)c1cc2c(cc1F)nc(N)c1cncn12)[C@@H](c1ccc(C(F)(F)F)cc1F)C(F)F [Fb-8, (S)-4-amino-N-(2,2-difluoro-1-(2-fluoro-4-(trifluoromethyl)phenyl)ethyl)-7-fluoro-N-methylimidazo[1,5-a]quinoxaline-8-carboxamide]	< 100 nM
431	1 to 5 nM	CC(=O)N(C)N(Cc1ccc(OC(F)F)cc1F)C(=O)c1ccc2nc(N)c3cnc(C)n3c2c1 [Fc-2, N′-acetyl-4-amino-N-(4-(difluoromethoxy)-2-fluorobenzyl)-N′,1-dimethylimidazo[1,5-a]quinoxaline-8-carbohydrazide]	100 to 1000 nM
54	1 to 5 nM	Nc1nc2ccc(C(=O)N(Cc3ccc(C(F)(F)F)cn3)N3CCCC3=O)cc2n2cncc12 [Fd-1, 4-amino-N-(2-oxopyrrolidin-1-yl)-N-((5-(trifluoromethyl)pyridin-2-yl)methyl)imidazo[1,5-a]quinoxaline-8-carboxamide]	100 to 1000 nM

Reference: patent publication US12448388B2, “PRMT5 inhibitors and uses thereof” (Gilead Sciences, Inc., priority 2023, dated 2025)
